Source: ChEMBL document CHEMBL1131884, “Dicationic 2-fluorenonylcarbapenems: potent anti-MRS agents with improved solubility and pharmacokinetic properties” (Bioorg Med Chem Lett, 1999)
pIC50: −log10 of the molar value.

Columns and labels:
MecA = molecular target: T1, MecA (Staphylococcus aureus, UniProt Q7DHH4); experiment: Binding affinity against PBP2a receptor by competition analysis with [3H]benzylpenicillin using cell membrane fractions from the MRSA COL strain.
T1 sequence (Q7DHH4 whole entry): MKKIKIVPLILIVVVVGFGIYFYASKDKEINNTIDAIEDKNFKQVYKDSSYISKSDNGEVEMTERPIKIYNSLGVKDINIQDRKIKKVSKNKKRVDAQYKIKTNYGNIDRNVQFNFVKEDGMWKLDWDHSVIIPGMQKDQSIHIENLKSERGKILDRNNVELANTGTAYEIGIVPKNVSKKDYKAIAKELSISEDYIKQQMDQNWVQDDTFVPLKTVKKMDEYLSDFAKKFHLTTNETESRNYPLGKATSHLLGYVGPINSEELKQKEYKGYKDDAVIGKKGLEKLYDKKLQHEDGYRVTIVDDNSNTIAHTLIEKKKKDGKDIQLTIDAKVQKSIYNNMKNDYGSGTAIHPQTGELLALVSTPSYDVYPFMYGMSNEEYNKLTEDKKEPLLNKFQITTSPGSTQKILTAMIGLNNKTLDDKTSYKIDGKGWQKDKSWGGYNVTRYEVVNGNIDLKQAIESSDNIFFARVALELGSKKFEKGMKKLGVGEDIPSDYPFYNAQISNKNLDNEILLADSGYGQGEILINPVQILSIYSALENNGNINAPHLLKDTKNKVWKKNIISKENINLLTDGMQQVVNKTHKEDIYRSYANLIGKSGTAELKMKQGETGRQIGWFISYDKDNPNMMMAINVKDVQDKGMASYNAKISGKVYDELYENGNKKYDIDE

Staphylococcus aureus = experiment: Antibacterial activity against methicillin-resistant Staphylococcus aureus (MRSA); type: functional
Staphylococcus sp. = experiment: Antibacterial activity against methicillin-resistant coagulase negative Staphylococci (MRCNS); type: functional

Compound	pIC50 (MecA)	MIC50 (Staphylococcus aureus) [µg/mL]	MIC90 (Staphylococcus aureus) [µg/mL]	MIC50 (Staphylococcus sp.) [µg/mL]	MIC90 (Staphylococcus sp.) [µg/mL]
C[C@@H](O)[C@H]1C(=O)N2C(C(=O)O)=C(c3ccc4c(c3)-c3ccc(C[N+]56CC[N+](CC(=O)Nc7ccc(O)cc7)(CC5)CC6)cc3C4=O)[C@H](C)[C@H]12.[Cl-].[Cl-]	6.19	0.5	1	1	4
C[C@@H](O)[C@H]1C(=O)N2C(C(=O)O)=C(c3ccc4c(c3)-c3ccc(C[N+]56CC[N+](Cc7ccccc7)(CC5)CC6)cc3C4=O)[C@H](C)[C@H]12.[Cl-].[Cl-]	5.49	1	2	2	8
C[C@@H](O)[C@H]1C(=O)N2C(C(=O)O)=C(c3ccc4c(c3)-c3ccc(C[N+]56CC[N+](CC(=O)Nc7nccs7)(CC5)CC6)cc3C4=O)[C@H](C)[C@H]12.[Cl-].[Cl-]	6.07	2	4	4	8
C[C@@H](O)[C@H]1C(=O)N2C(C(=O)O)=C(c3ccc4c(c3)-c3ccc(C[N+]56CC[N+](CCO)(CC5)CC6)cc3C4=O)C[C@H]12.[Cl-].[Cl-]	6.56	2	4	2	4
C[C@@H](O)[C@H]1C(=O)N2C(C(=O)O)=C(c3ccc4c(c3)-c3ccc(C[N+]56CC[N+](CC(=O)N(C)C)(CC5)CC6)cc3C4=O)C[C@H]12.[Cl-].[Cl-]	–	4	4	4	4
C[C@@H](O)[C@H]1C(=O)N2C(C(=O)O)=C(c3ccc4c(c3)-c3ccc(C[N+]56CC[N+](CC(=O)c7ccccc7)(CC5)CC6)cc3C4=O)[C@H](C)[C@H]12.[Cl-].[Cl-]	6.06	1	2	2	4
C[C@@H](O)[C@H]1C(=O)N2C(C(=O)O)=C(c3ccc4c(c3)-c3ccc(C[N+]56CC[N+](CC(=O)Nc7ccc(C#N)cc7)(CC5)CC6)cc3C4=O)[C@H](C)[C@H]12.[Cl-].[Cl-]	5.85	1	2	1	4
CNC(=O)C[N+]12CC[N+](Cc3ccc4c(c3)C(=O)c3ccc(C5=C(C(=O)O)N6C(=O)[C@H]([C@@H](C)O)[C@H]6C5)cc3-4)(CC1)CC2.[Cl-].[Cl-]	–	2	8	2	4
C[C@@H](O)[C@H]1C(=O)N2C(C(=O)O)=C(c3ccc4c(c3)-c3ccc(C[N+]56CC[N+](CC(=O)Nc7ccncc7)(CC5)CC6)cc3C4=O)[C@H](C)[C@H]12.[Cl-].[Cl-]	5.92	1	2	2	4
C[C@@H](O)[C@H]1C(=O)N2C(C(=O)O)=C(c3ccc4c(c3)-c3ccc(C[N+]56CC[N+](C)(CC5)CC6)cc3C4=O)C[C@H]12.[Cl-].[Cl-]	6.51	2	8	2	4
C[C@@H](O)[C@H]1C(=O)N2C(C(=O)O)=C(c3ccc4c(c3)-c3ccc(C[N+]56CC[N+](CC(=O)Nc7ccccc7C#N)(CC5)CC6)cc3C4=O)[C@H](C)[C@H]12.[Cl-].[Cl-]	5.96	1	2	2	4
C[C@@H](O)[C@H]1C(=O)N2C(C(=O)O)=C(c3ccc4c(c3)-c3ccc(C[N+]56CC[N+](CCCO)(CC5)CC6)cc3C4=O)[C@H](C)[C@H]12.[Cl-].[Cl-]	6.14	2	4	4	8
CNC(=O)C[N+]12CC[N+](Cc3ccc4c(c3)C(=O)c3ccc(C5=C(C(=O)O)N6C(=O)[C@H]([C@@H](C)O)[C@H]6[C@H]5C)cc3-4)(CC1)CC2.[Cl-].[Cl-]	6.30	4	8	4	8
C[C@@H](O)[C@H]1C(=O)N2C(C(=O)O)=C(c3ccc4c(c3)-c3ccc(C[N+]56CC[N+](CC#N)(CC5)CC6)cc3C4=O)C[C@H]12.[Cl-].[Cl-]	6.32	2	4	2	4
C[C@@H](O)[C@H]1C(=O)N2C(C(=O)O)=C(c3ccc4c(c3)-c3ccc(C[N+]56CC[N+](CC(=O)Nc7ccccc7C(N)=O)(CC5)CC6)cc3C4=O)[C@H](C)[C@H]12.[Cl-].[Cl-]	5.99	2	4	2	8
C[C@@H](O)[C@H]1C(=O)N2C(C(=O)O)=C(c3ccc4c(c3)-c3ccc(C[N+]56CC[N+](CC(=O)c7ccccc7)(CC5)CC6)cc3C4=O)C[C@H]12.[Cl-].[Cl-]	–	2	4	2	4
C[C@@H](O)[C@H]1C(=O)N2C(C(=O)O)=C(c3ccc4c(c3)-c3ccc(C[N+]56CC[N+](CC(=O)NC7CCCC7)(CC5)CC6)cc3C4=O)[C@H](C)[C@H]12.[Cl-].[Cl-]	5.85	2	4	4	8
C[C@@H](O)[C@H]1C(=O)N2C(C(=O)O)=C(c3ccc4c(c3)-c3ccc(C[N+]56CC[N+](CC(=O)Nc7cccnc7)(CC5)CC6)cc3C4=O)[C@H](C)[C@H]12.[Cl-].[Cl-]	6.21	1	2	2	4
CC(=O)C[N+]12CC[N+](Cc3ccc4c(c3)C(=O)c3ccc(C5=C(C(=O)O)N6C(=O)[C@H]([C@@H](C)O)[C@H]6C5)cc3-4)(CC1)CC2.[Cl-].[Cl-]	–	2	8	4	4
CCC[N+]12CC[N+](Cc3ccc4c(c3)C(=O)c3ccc(C5=C(C(=O)O)N6C(=O)[C@H]([C@@H](C)O)[C@H]6C5)cc3-4)(CC1)CC2.[Cl-].[Cl-]	6.34	2	4	2	4
C[C@@H](O)[C@H]1C(=O)N2C(C(=O)O)=C(c3ccc4c(c3)-c3ccc(C[N+]56CC[N+](CC(=O)Nc7ccc(CCO)cc7)(CC5)CC6)cc3C4=O)[C@H](C)[C@H]12.[Cl-].[Cl-]	5.88	1	2	2	4
CC[N+]12CC[N+](Cc3ccc4c(c3)C(=O)c3ccc(C5=C(C(=O)O)N6C(=O)[C@H]([C@@H](C)O)[C@H]6C5)cc3-4)(CC1)CC2.[Cl-].[Cl-]	6.38	2	4	2	4
C[C@@H](O)[C@H]1C(=O)N2C(C(=O)O)=C(c3ccc4c(c3)-c3ccc(C[N+]56CC[N+](CCOc7ccccc7)(CC5)CC6)cc3C4=O)[C@H](C)[C@H]12.[Cl-].[Cl-]	6.25	1	2	2	4
CCC[N+]12CC[N+](Cc3ccc4c(c3)C(=O)c3ccc(C5=C(C(=O)O)N6C(=O)[C@H]([C@@H](C)O)[C@H]6[C@H]5C)cc3-4)(CC1)CC2.[Cl-].[Cl-]	6.04	4	4	4	8
COC(=O)C[N+]12CC[N+](Cc3ccc4c(c3)C(=O)c3ccc(C5=C(C(=O)O)N6C(=O)[C@H]([C@@H](C)O)[C@H]6C5)cc3-4)(CC1)CC2.[Cl-].[Cl-]	–	8	16	16	16
C[C@@H](O)[C@H]1C(=O)N2C(C(=O)O)=C(c3ccc4c(c3)-c3ccc(C[N+]56CC[N+](CC(=O)Nc7ccc(C(N)=O)cc7)(CC5)CC6)cc3C4=O)[C@H](C)[C@H]12.[Cl-].[Cl-]	5.71	0.25	0.5	0.5	2
COc1ccccc1NC(=O)C[N+]12CC[N+](Cc3ccc4c(c3)C(=O)c3ccc(C5=C(C(=O)O)N6C(=O)[C@H]([C@@H](C)O)[C@H]6[C@H]5C)cc3-4)(CC1)CC2.[Cl-].[Cl-]	6.06	1	2	2	4
CCCNC(=O)C[N+]12CC[N+](Cc3ccc4c(c3)C(=O)c3ccc(C5=C(C(=O)O)N6C(=O)[C@H]([C@@H](C)O)[C@H]6[C@H]5C)cc3-4)(CC1)CC2.[Cl-].[Cl-]	5.91	2	4	4	8
C[C@@H](O)[C@H]1C(=O)N2C(C(=O)O)=C(c3ccc4c(c3)-c3ccc(C[N+]56CC[N+](C)(CC5)CC6)cc3C4=O)[C@H](C)[C@H]12.[Cl-].[Cl-]	5.91	2	4	4	8
